Measured values reported in patent US10206908B2, “3-(1H-pyrrolo[3,2-C]pyridin-2-YL)-1H-pyrazolo[3,4-C]pyridines and therapeutic uses thereof” (Samumed, LLC, priority 2015, dated 2019).

What was measured:
Assay type in all cases: cell-based
[1] = system: IL-6 (THP-1 cells); assay: IL-6 inhibition in LPS-stimulated THP-1 monocytes (HTRF); settings: Homo sapiens; for EC50: IL-6, THP-1 cells, LPS 500 ng/mL, 22 hours
In short: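 THP-1 cells kept 24 h in 1% FBS medium, exposed to compound 2 h at 37 °C, then stimulated with 500 ng/mL LPS for 22 h. Secreted IL-6 quantified by HTRF (665/620 nm ratio), duplicates. Values normalized to DMSO; EC50 by four-parameter variable-slope regression.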

[2] = system: Wnt activity (Sp5-Luc reporter, SW480 colon carcinoma cells); assay: Screening assay for Wnt activity: Sp5-Luc reporter gene assay in SW480 colon carcinoma cells; settings: Homo sapiens; Sp5-Luc reporter, SW480 cells, overnight incubation
In short: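 SW480 colon carcinoma cells stably carrying Sp5 promoter (eight TCF/LEF sites)-driven firefly luciferase, plated at 4,000 cells/well in 1% FBS medium and incubated overnight at 37° C. Luminescence normalised to DMSO-only cells; EC50 from four-parameter variable-slope nonlinear regression.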

[3] = system: primary human mesenchymal stem cells (hMSCs); assay: Induction of chondrogenesis in hMSCs (chondrogenic nodules, Rhodamine B/Nile Red); settings: 6 days; for Emax: relative to TGF-β3 (10 ng/mL) positive control, read-out: Max. Activity as % TGF-β3 activity; for EC50: concentration required to induce 50% levels of chondrogenesis vs TGF-β3, read-out: Conc (nM) of 50% TGF-β3 activity
In short: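 Primary hMSCs at passages 3 to 6 were scored for chondrogenic nodules. Counts were normalized to the mean of 3 DMSO wells on the same plate, averaging 3 replicate wells per concentration. TGF-β3 served as positive control; reported values are the concentration giving 50% chondrogenesis plus maximum activity and its dose.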

[4] = system: SW480 colon cancer cells; assay: Cell viability assay (CellTiter-Blue) in SW480 colon cancer cells; settings: Homo sapiens; for EC50: 96 h, SW480 cell viability, four days; for inhibition at 10 µM: SW480, read-out: percent inhibition at 10 μM
In short: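 Fluorescence from resazurin reduced to resorufin by metabolically active cells was the read-out, taken after ~3 h with CellTiter-Blue.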

[5] = system: primary human fibroblasts derived from IPF patients (LL29 cells) treated with TGF-β1; assay: Inhibition of the fibrotic process: αSMA staining in TGF-β1 treated LL29 fibroblasts; settings: Fibroblast; for EC50: 96 h, % αSMA positive LL29 cells, TGF-β1 20 ng/mL, 4 days
In short: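 Read-out after 4-day incubation: αSMA staining with 1 μM SYTOX green nuclear counterstain (30 min, room temperature). Cells were LL29 primary fibroblasts from IPF patients, in 1% FBS F12, exposed to TGF-β1 with test compound, referenced to TGF-β1/DMSO control wells.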

SMILES	EC50 [1]	EC50 [2]	Emax [3]	EC50 [4]	inhibition at 10 µM [4]	EC50 [5]	inhibition at 10 µM ([5]; read-out: percent inhibition at 10 μM)	EC50 [3]	inhibition at 10 µM ([1]; THP-1, read-out: percent inhibition at 10 μM)
CN(C)Cc1cncc(-c2cc3c(-c4cc5c(N6CCN(C)CC6)nccc5[nH]4)n[nH]c3cn2)c1 [Compound 237, N,N-Dimethyl-1-(5-(3-(4-(4-methylpiperazin-1-yl)-1H-pyrrolo[3,2-c]pyridin-2-yl)-1H-pyrazolo[3,4-c]pyridin-5-yl)pyridin-3-yl)methanamine]	4680 nM	3890 nM	14%	> 10000 nM	43.7%	> 10000 nM	37%		
Cc1ccncc1-c1cc2c(-c3cc4cnccc4[nH]3)n[nH]c2cn1 [Compound 257, 5-(4-Methylpyridin-3-yl)-3-(1H-pyrrolo[3,2-c]pyridin-2-yl)-1H-pyrazolo[3,4-c]pyridine]	944 nM	389 nM	61%	798 nM		376 nM		10 nM	
Nc1cncc(-c2cc3c(-c4cc5c(-c6ccccc6F)nccc5[nH]4)n[nH]c3cn2)c1 [Compound 59, 5-(3-(4-(2-Fluorophenyl)-1H-pyrrolo[3,2-c]pyridin-2-yl)-1H-pyrazolo[3,4-c]pyridin-5-yl)pyridin-3-amine]	119 nM	224 nM	117%	940 nM		5400 nM		10 nM	
O=C(Nc1cncc(-c2cc3c(-c4cc5cnccc5[nH]4)n[nH]c3cn2)c1)C1CCCCC1 [Compound 275, N-(5-(3-(1H-Pyrrolo[3,2-c]pyridin-2-yl)-1H-pyrazolo[3,4-c]pyridin-5-yl)pyridin-3-yl)cyclohexanecarboxamide]	2690 nM	1620 nM	59%	5200 nM		1880 nM		30 nM	
CC(C)(C)CC(=O)Nc1cncc(-c2cc3c(-c4cc5c(-c6ccccc6F)nccc5[nH]4)n[nH]c3cn2)c1 [Compound 72, N-(5-(3-(4-(2-fluorophenyl)-1H-pyrrolo[3,2-c]pyridin-2-yl)-1H-pyrazolo[3,4-c]pyridin-5-yl)pyridin-3-yl)-3,3-dimethylbutanamide]	1090 nM	1030 nM	54%	1280 nM		932 nM		30 nM	
CN(C)c1cncc(-c2cc3c(-c4cc5cnccc5[nH]4)n[nH]c3cn2)c1 [Compound 259, 5-(3-(1H-Pyrrolo[3,2-c]pyridin-2-yl)-1H-pyrazolo[3,4-c]pyridin-5-yl)-N,N-dimethylpyridin-3-amine]	2220 nM	3060 nM	101%	1600 nM		401 nM		300 nM	
CN1CCN(c2nccc3[nH]c(-c4n[nH]c5cnc(-c6cncc(NC(=O)C(C)(C)C)c6)cc45)cc23)CC1 [Compound 232, N-(5-(3-(4-(4-Methylpiperazin-1-yl)-1H-pyrrolo[3,2-c]pyridin-2-yl)-1H-pyrazolo[3,4-c]pyridin-5-yl)pyridin-3-yl)pivalamide]	388 nM	1880 nM	88%	> 10000 nM	62.2%	756 nM		10 nM	
c1cncc(-c2cc3c(-c4cc5cnccc5[nH]4)n[nH]c3cn2)c1 [Compound 256, 5-(Pyridin-3-yl)-3-(1H-pyrrolo[3,2-c]pyridin-2-yl)-1H-pyrazolo[3,4-c]pyridine]	362 nM	133 nM	62%	628 nM		25 nM		30 nM	
O=C(Nc1cncc(-c2cc3c(-c4cc5cnccc5[nH]4)n[nH]c3cn2)c1)c1ccccc1 [Compound 263, N-(5-(3-(1H-Pyrrolo[3,2-c]pyridin-2-yl)-1H-pyrazolo[3,4-c]pyridin-5-yl)pyridin-3-yl)benzamide]	> 10000 nM	580 nM	152%	> 10000 nM	8.5%	97 nM		10 nM	10.3%
